Legend:
DHODH KO HT-1080 cells [1] = assay: Cell viability / cell death (ferroptosis) in DHODH KO HT-1080 cells; type: cell-based, human; settings: DHODH KO; pretreatment 10 μM, 24 hours
Experimental: Knockout of DHODH, ACSL4 and COQ2 in human cell lines was performed using single guide RNAs (sgRNAs) and doxycycline (DOX)-inducible CRISPR-Cas9 expression system as described in our recent publication (Lee, H., et al., Nature cell biology 22, 225-234 (2020)). sgRNAs were cloned into the lentiviral lentiGuide vector. LentiGuide clones were transfected into HEK293T cells with psPAX2 packaging plasmid and pMD2.G expressing plasmid. Cells were infected with lentivirus with 0.8 μg/ml polybrene, selected with puromycin (1 μg/ml, InvivoGen), blasticidin (2 μg/ml, InvivoGen) or hygromycin B (2 μg/ml, InvivoGen) for 3 days and then single cells were sorted into 96-well plates. Single cells were maintained in DMEM with 10% (v/v) FBS and 1% (v/v) penicillin/streptomycin at 37° C. in an incubator with 20% O2 and 5% CO2 for 3-4 weeks and each colony was verified by western blot to confirm the target gene deletion. To generate cell lines with DOX-inducible CRISPR-Cas9-mediated gene deletion, cells were infected with lentivirus, selected with puromycin (1 μg/ml, InvivoGen), blasticidin (2 μg/ml, InvivoGen) or hygromycin B (2 μg/ml, InvivoGen) for 2 days and then single cells were sorted into 96-well plates. Once cell lines were established, 1 μg/ml of DOX (Sigma-Aldrich) was added to the media to induce target gene deletion for 48 hours after selection; then cells were cultured in DOX-free media for subsequent analyses.
Viable cells were measured using Cell Counting Kit-8 (CCK-8, Dojindo) as previously described (Koppula, P., Zhang, Y., Shi, J., Li, W. & Gan, B, J Biol Chem 292, 14240-14249 (2017); Liu, X. & Gan, B, Cell Cycle 15, 3471-3481 (2016)). Briefly, cells were seeded onto 96-well plates at a density of 2×10^4 per well. The next day, cells were treated with GPX4 or DHODH inhibitors for 4 hours. Subsequently, cells exposed to 10 μl CCK-8 reagent (100 μl medium per well) for 1 hour at 37° C., 5% CO2 in an incubator. The absorbance at a wavelength of 450 nm was determined using a FLUOstar Omega microplate reader (BMG Labtech).
Cell death was measured by propidium iodide (Roche) staining using a flow cytometer, as previously described (Dai, F., et al., Proc Natl Acad Sci USA 114, 3192-3197 (2017); Zhang, Y., et al., Cancer Res 80, 2243-2256 (2020)). For propidium iodide-staining, cells were seeded at a density of 50% confluence into 12-well plates. The next day, cells were treated with different reagents. To measure cell death, the cells were collected (including floating dead cells), stained with 5 μg/ml propidium iodide and the percentage of the propidium iodide-positive dead cell population was analyzed using the flow cytometer BD Accuri C6 (BD Biosciences) and an FL2 detector. A minimum of 10,000 single cells were analyzed per well and all experiments were carried out at least in triplicate.

DHODH KO HT-1080 cells [2] = assay: Mitochondrial lipid peroxidation (mito-BODIPY) in DHODH KO HT-1080 cells; type: cell-based, human; settings: pretreatment 10 μM, 24 hours
GPX4-knockdown tumors = assay: GPX4-knockdown HT-1080 xenograft model; type: in vivo, athymic nude mice; settings: liproxstatin-1 10 mg/kg intraperitoneally daily
Experimental: Fresh tumor tissues were fixed in 10% neutral buffered formalin overnight, washed once with PBS, and stored in 70% ethanol at 4° C. The tissues were dehydrated and embedded in paraffin by the Research Histology Core Laboratory (MD Anderson Cancer Center) according to standard protocols. Embedded tissues were sectioned at a thickness of 5 μm for H&E or immunohistochemistry (IHC) analysis. IHC analysis was performed as previously described (Gan, B., et al., Cancer Cell 18, 472-484 (2010); Gan, B., et al., J Cell Biol 175, 121-133 (2006)). Briefly, the primary antibodies, including ki-67 (1:500, 9027s, Cell Signaling Technology), cleaved-caspase 3 (1:500, 9661s, Cell Signaling Technology), or 4-HNE (1:400, ab46545, Abcam) were incubated overnight at 4° C. Staining was performed using the Vectastain elite ABC kit and DAB peroxidase substrate kit (Vector laboratories). Images were randomly taken from the […] (five images per tumor) at ×200 magnification using an Olympus BX43 microscope. All the xenograft experiments were performed in accordance with a protocol approved by the Institutional Animal Care and Use Committee and Institutional Review Board at The University of Texas MD Anderson Cancer Center. The study is compliant with all relevant ethical regulations regarding animal research. Female 4- to 6-week-old athymic nude mice (Foxn1^nu/Foxn1^nu) were purchased from the Experimental Radiation Oncology Breeding Core Facility at MD Anderson Cancer Center and housed in the Animal Care Facility at the Department of Veterinary Medicine and Surgery at MD Anderson. Cancer cell lines were suspended and counted in cold phosphate-buffered saline (PBS), and 5×10^6 HT-1080 or 1×10^7 NCI-H226 cells were injected into mice subcutaneously. When the tumor reached 50-100 mm^3, the mice were assigned randomly into different treatment groups. Brequinar or sulfasalazine was dissolved in dimethyl sulfoxide (DMSO) and diluted in PBS. Brequinar was intraperitoneally injected into mice at a dose of 30 mg/kg every three days. Sulfasalazine was intraperitoneally injected daily at a dose of 100 mg/kg. Liproxstatin-1 diluted in PBS was intraperitoneally injected daily at a dose of 10 mg/kg. The daily injection of brequinar, sulfasalazine, or liproxstatin-1 was continued until the endpoint as indicated in the corresponding figures. The tumor volume was measured every 3 days until the endpoint and calculated according to the equation volume=length×width^2×½.

[3] = system: GPX4^low NCI-H226 xenografts; assay: NCI-H226 xenograft model; type: in vivo, athymic nude mice; settings: liproxstatin-1 10 mg/kg intraperitoneally daily
Experimental: All the xenograft experiments were performed in accordance with a protocol approved by the Institutional Animal Care and Use Committee and Institutional Review Board at The University of Texas MD Anderson Cancer Center. The study is compliant with all relevant ethical regulations regarding animal research. Female 4- to 6-week-old athymic nude mice (Foxn1^nu/Foxn1^nu) were purchased from the Experimental Radiation Oncology Breeding Core Facility at MD Anderson Cancer Center and housed in the Animal Care Facility at the Department of Veterinary Medicine and Surgery at MD Anderson. Cancer cell lines were suspended and counted in cold phosphate-buffered saline (PBS), and 5×10^6 HT-1080 or 1×10^7 NCI-H226 cells were injected into mice subcutaneously. When the tumor reached 50-100 mm^3, the mice were assigned randomly into different treatment groups. Brequinar or sulfasalazine was dissolved in dimethyl sulfoxide (DMSO) and diluted in PBS. Brequinar was intraperitoneally injected into mice at a dose of 30 mg/kg every three days. Sulfasalazine was intraperitoneally injected daily at a dose of 100 mg/kg. Liproxstatin-1 diluted in PBS was intraperitoneally injected daily at a dose of 10 mg/kg. […] The tumor volume was measured every 3 days until the endpoint and calculated according to the equation volume=length×width^2×½.

Clc1cccc(CN=C2Nc3ccccc3NC23CCNCC3)c1 [liproxstatin-1]
protection against GPX4 inhibition (RSL3 or ML162)-induced ferroptosis (DHODH KO HT-1080 cells [1]): rescued
suppression of GPX4 inhibitor-induced mitochondrial lipid peroxidation (DHODH KO HT-1080 cells [2]): could be suppressed
restoration of tumor growth under brequinar treatment (GPX4-knockdown tumors): largely restored the growth
restoration of brequinar-suppressed tumor growth [3]: could be restored

Source: patent US20240148757A1, “USE OF DIHYDROOROTATE DEHYDROGENASE (DHODH) INHIBITORS TO TARGET FERROPTOSIS IN CANCER THERAPY” (BOARD OF REGENTS, THE UNIVERSITY OF TEXAS SYSTEM, priority 2021, published 2024)
